Patent US20240173389A1, “Compositions and Methods For Reducing Immune Intolerance” (LAPIX THERAPEUTICS, INC., priority 2021, published 2024)

System: B57BL6 Mice
Assay: Anti-FVIII titer analysis in mice given FVIII co-mixed with compound SC QW 4 weeks, then FVIII re-challenge (Example 1)
Assay type: in vivo
Protocol: OPLT was dissolved in sterile PBS, and pH was adjusted to approximately 7.5. OPLS, a comparator compound, was dissolved in sterile PBS, and pH was adjusted to approximately 7.5. FVIII in PBS was used as a control. For treatment, FVIII was co-mixed with OPLT, OPLS or diluted in PBS before administration, as per group assignment for each animal. For re-challenge, FVIII was administered alone SC to all animals regardless of group assignment. […] For a head-to-head comparison, 5 mg/injection was selected for OPLT. FVIII was dosed at 1 μg/injection.
The study was conducted in two parts: a treatment phase and a re-challenge phase. The objective of the treatment phase was to test the ability of OPLT to reduce the immunogenicity of FVIII as an antigen compared to animals administered FVIII or FVIII+OPLS. Animals were injected with FVIII, FVIII+OPLT, or FVIII+OPLS SC QW for 4 weeks. Blood samples were collected for anti-FVIII titer analysis after a one-week washout period from the last dose. The objective of the re-challenge phase of the study was to evaluate the duration of tolerance. Animals that have been successfully tolerized toward FVIII will not mount a robust immune response towards FVIII upon subsequent exposure to FVIII. After the washout period, animals were injected with (1 μg) FVIII SC QW for 2 weeks. Blood samples were collected one week after each FVIII injection for anti-FVIII titer analysis.

[1] = weeks 1 and 2 of re-challenge with FVIII alone SC QW

**Q.** How did the “inducing sustained immunotolerization toward FVIII” value (OPLT versus OPLS, 5 mg/injection each) turn out when `N[C@@H](Cc1ccc(OP(=O)(O)O)cc1)C(=O)O` [OPLT, O-phospho-L-tyrosine] was run?
**A.** more effective than OPLS

**Q.** What about the “anti-FVIII titers versus FVIII control group” value (end of treatment after one-week washout) of the same compound?
**A.** statistically lower than the FVIII control group

**Q.** And the “animals that developed anti-FVIII antibodies” value (end of treatment after one-week washout, 5 mg/injection + FVIII SC QW 4 weeks, FVIII control 8/8)?
**A.** 3/8

**Q.** What about the “average anti-FVIII titer in re-challenge period” value [1] of the same compound?
**A.** lower titer than animals in the OPLS+FVIII and the FVIII control group

**Q.** What about the “immune response to FVIII re-challenge” value [1] of the same compound?
**A.** did not develop a robust immune response
